“And” between values parts separate entries of the source, which are not always exact repeats. Identical values can stand only once.
Tests used:
Assay in all cases: EDTA salt dilution test, MIC/MBC
Type in all cases: cell-based
E. coli = conditions: three entries; for MBC, minimum concentration required to kill an entire population: Exhibit A1
Protocol: (§1) Protocol one: Broth dilutions:
(§2) Inoculate a 25 ml nutrient broth (Oxoid No2) in a sterile universal container with one of the following organisms; Pseudomonas aeruginosa, Proteus Mirabilis, E. coli, Klebsiella pneumoniae, Staph aureus, Coagulase negative staphylococci, Enterococcus faecalis or MRSA.
(§3) Incubate the broth at 37° C. overnight.
(§4) To make these concentrations put the EDTA needed for 10 mLs in only 9 mLs of broth in sterile universal containers, as this will be diluted further when the organisms are added.
(§5) Dilute the overnight broth cultures to 10^7 organisms/mL using more sterile nutrient broth.
(§6) Add 1 mL of this diluent to each of the EDTA series broths. This gives a final concentration of 10^6 organism/mL in the EDTA broths.
(§7) Incubate for 18 hours at 37° C.
(§8) Next day visually read the MIC's by observing the turbidity of the broths.
(§9) Plate out 1 uL of each dilution onto fresh blood agar plate and spread using a sterile plastic spreader.
(§10) Incubate overnight at 37° C.
(§11) Next day read the MBC's by performing colony counts.

Ent. faecalis = conditions: for MBC, minimum concentration required to kill an entire population: Exhibit A1; for MIC, minimum concentration required to inhibit growth: Exhibit A2
Protocol: as §1, §2, §3, §4, §5, §6, §7, §8, §9, §10, §11

Kleb. pnemoniae = conditions: two entries; for MBC, minimum concentration required to kill an entire population: Exhibit A1; for MIC, minimum concentration required to inhibit growth: Exhibit A2
Protocol: as §1, §2, §3, §4, §5, §6, §7, §8, §9, §10, §11

MRSA = conditions: five entries; for MBC, minimum concentration required to kill an entire population: Exhibit A1; for MIC, minimum concentration required to inhibit growth: Exhibit A2
Protocol: as §1, §2, §3, §4, §5, §6, §7, §8, §9, §10, §11

Proteus mirabilis = conditions: two entries; for MBC, minimum concentration required to kill an entire population: Exhibit A1; for MIC, minimum concentration required to inhibit growth: Exhibit A2
Protocol: as §1, §2, §3, §4, §5, §6, §7, §8, §9, §10, §11

Pseudomonas aeruginosa = conditions: two entries; for MBC, minimum concentration required to kill an entire population: Exhibit A1; for MIC, minimum concentration required to inhibit growth: Exhibit A2
Protocol: as §1, §2, §3, §4, §5, §6, §7, §8, §9, §10, §11

Pseudomonas sp. = conditions: for MBC, minimum concentration required to kill an entire population: Exhibit A1; for MIC, minimum concentration required to inhibit growth: Exhibit A2
Protocol: as §1, §2, §3, §4, §5, §6, §7, §8, §9, §10, §11

S. aureus = conditions: five entries; for MBC, minimum concentration required to kill an entire population: Exhibit A1; for MIC, minimum concentration required to inhibit growth: Exhibit A2
Protocol: as §1, §2, §3, §4, §5, §6, §7, §8, §9, §10, §11

S. capitis = conditions: two entries; for MBC, minimum concentration required to kill an entire population: Exhibit A1; for MIC, minimum concentration required to inhibit growth: Exhibit A2
Protocol: as §1, §2, §3, §4, §5, §6, §7, §8, §9, §10, §11

S. epidermidis = conditions: two entries; for MBC, minimum concentration required to kill an entire population: Exhibit A1; for MIC, minimum concentration required to inhibit growth: Exhibit A2
Protocol: as §1, §2, §3, §4, §5, §6, §7, §8, §9, §10, §11

S. lentus = conditions: for MBC, minimum concentration required to kill an entire population: Exhibit A1; for MIC, minimum concentration required to inhibit growth: Exhibit A2
Protocol: as §1, §2, §3, §4, §5, §6, §7, §8, §9, §10, §11

S. simulans = conditions: for MBC, minimum concentration required to kill an entire population: Exhibit A1; for MIC, minimum concentration required to inhibit growth: Exhibit A2
Protocol: as §1, §2, §3, §4, §5, §6, §7, §8, §9, §10, §11

S. xylosus = conditions: for MBC, minimum concentration required to kill an entire population: Exhibit A1; for MIC, minimum concentration required to inhibit growth: Exhibit A2
Protocol: as §1, §2, §3, §4, §5, §6, §7, §8, §9, §10, §11

VRE = conditions: two entries, Exhibit A1
Protocol: as §1, §2, §3, §4, §5, §6, §7, §8, §9, §10, §11

Ent. faeculm = conditions: for MIC, minimum concentration required to inhibit growth: Ent. faecuim, Exhibit A2; for MBC, minimum concentration required to kill an entire population: Ent. faeculm, Exhibit A1
Kleb. oxytoca = conditions: for MBC, minimum concentration required to kill an entire population: Exhibit A1; for MIC, minimum concentration required to inhibit growth: Exhibit A2
Kleb. ornitholytica = conditions: for MBC, minimum concentration required to kill an entire population: Exhibit A1; for MIC, minimum concentration required to inhibit growth: Exhibit A2
Ent. cloacae = conditions: three entries
Steno. maltophilia = conditions: for MBC, minimum concentration required to kill an entire population: Exhibit A1; for MIC, minimum concentration required to inhibit growth: Exhibit A2
Cornyeform amycolatum = conditions: for MBC, minimum concentration required to kill an entire population: Exhibit A1
Coryneform strait/amy = conditions: for MBC, minimum concentration required to kill an entire population: Exhibit A1; for MIC, minimum concentration required to inhibit growth: Exhibit A2
Acinetobacter baumanii = conditions: two entries, Exhibit A1
Proteus vulgaris = conditions: for MBC, minimum concentration required to kill an entire population: Exhibit A1; for MIC, minimum concentration required to inhibit growth: Exhibit A2

Compound: O=C([O-])CN(CCN(CC(=O)[O-])CC(=O)[O-])CC(=O)[O-].[Fe+3].[Na+] [Ferric-sodium salt EDTA]
- MBC, minimum concentration required to kill an entire population (E. coli): >15 mg/mL
- MIC, minimum concentration required to inhibit growth (E. coli; Exhibit A2): 15 mg/mL and >15 mg/mL
- MBC, minimum concentration required to kill an entire population (Ent. faecalis): >30 mg/mL
- MIC, minimum concentration required to inhibit growth (Ent. faecalis): 4 mg/mL
- MBC, minimum concentration required to kill an entire population (Kleb. pnemoniae): >15 mg/mL
- MIC, minimum concentration required to inhibit growth (Kleb. pnemoniae): >15 mg/mL and 15 mg/mL
- MBC, minimum concentration required to kill an entire population (MRSA): >30 mg/mL
- MIC, minimum concentration required to inhibit growth (MRSA): >20 mg/mL
- MBC, minimum concentration required to kill an entire population (Proteus mirabilis): >15 mg/mL
- MIC, minimum concentration required to inhibit growth (Proteus mirabilis): >15 mg/mL
- MBC, minimum concentration required to kill an entire population (Pseudomonas aeruginosa): >15 mg/mL
- MIC, minimum concentration required to inhibit growth (Pseudomonas aeruginosa): 15 mg/mL
- MBC, minimum concentration required to kill an entire population (Pseudomonas sp.): >15 mg/mL
- MIC, minimum concentration required to inhibit growth (Pseudomonas sp.): 15 mg/mL
- MBC, minimum concentration required to kill an entire population (S. aureus): >30 mg/mL
- MIC, minimum concentration required to inhibit growth (S. aureus): >20 mg/mL
- MBC, minimum concentration required to kill an entire population (S. capitis): >30 mg/mL
- MIC, minimum concentration required to inhibit growth (S. capitis): >20 mg/mL
- MBC, minimum concentration required to kill an entire population (S. epidermidis): >30 mg/mL
- MIC, minimum concentration required to inhibit growth (S. epidermidis): >20 mg/mL
- MBC, minimum concentration required to kill an entire population (S. lentus): >30 mg/mL
- MIC, minimum concentration required to inhibit growth (S. lentus): >20 mg/mL
- MBC, minimum concentration required to kill an entire population (S. simulans): >30 mg/mL
- MIC, minimum concentration required to inhibit growth (S. simulans): >20 mg/mL
- MBC, minimum concentration required to kill an entire population (S. xylosus): >30 mg/mL
- MIC, minimum concentration required to inhibit growth (S. xylosus): >20 mg/mL
- MBC, minimum concentration required to kill an entire population (VRE): >30 mg/mL
- MIC, minimum concentration required to inhibit growth (Ent. faeculm): 4 mg/mL
- MBC, minimum concentration required to kill an entire population (Ent. faeculm): >30 mg/mL
- MBC, minimum concentration required to kill an entire population (Kleb. oxytoca): >15 mg/mL
- MIC, minimum concentration required to inhibit growth (Kleb. oxytoca): >15 mg/mL
- MBC, minimum concentration required to kill an entire population (Kleb. ornitholytica): >15 mg/mL
- MIC, minimum concentration required to inhibit growth (Kleb. ornitholytica): 15 mg/mL
- MBC, minimum concentration required to kill an entire population (Ent. cloacae; Exhibit A1): >15 mg/mL
- MIC, minimum concentration required to inhibit growth (Ent. cloacae; Exhibit A2): >15 mg/mL
- MBC, minimum concentration required to kill an entire population (Steno. maltophilia): >15 mg/mL
- MIC, minimum concentration required to inhibit growth (Steno. maltophilia): 10 mg/mL
- MBC, minimum concentration required to kill an entire population (Cornyeform amycolatum): 10 mg/mL
- MIC, minimum concentration required to inhibit growth (Cornyeform amycolatum; Exhibit A2): 10 mg/mL
- MBC, minimum concentration required to kill an entire population (Coryneform strait/amy): 10 mg/mL
- MIC, minimum concentration required to inhibit growth (Coryneform strait/amy): 10 mg/mL
- MBC, minimum concentration required to kill an entire population (Acinetobacter baumanii): 10 mg/mL and >15 mg/mL
- MBC, minimum concentration required to kill an entire population (Proteus vulgaris): >15 mg/mL
- MIC, minimum concentration required to inhibit growth (Proteus vulgaris): >15 mg/mL

Compound: O=C([O-])CN(CCN(CC(=O)[O-])CC(=O)[O-])CC(=O)[O-].[Cu+2].[Na+].[Na+] [Cupric disodium EDTA]
- MBC, minimum concentration required to kill an entire population (E. coli): >30 mg/mL
- MBC, minimum concentration required to kill an entire population (Ent. faecalis): <0.5 mg/mL
- MIC, minimum concentration required to inhibit growth (Ent. faecalis): <0.5 mg/mL
- MBC, minimum concentration required to kill an entire population (Kleb. pnemoniae): >30 mg/mL
- MIC, minimum concentration required to inhibit growth (Kleb. pnemoniae): >30 mg/mL
- MBC, minimum concentration required to kill an entire population (MRSA): <0.5 mg/mL
- MIC, minimum concentration required to inhibit growth (MRSA): <0.5 mg/mL
- MBC, minimum concentration required to kill an entire population (Proteus mirabilis): >30 mg/mL
- MIC, minimum concentration required to inhibit growth (Proteus mirabilis): 6 mg/mL
- MBC, minimum concentration required to kill an entire population (Pseudomonas aeruginosa): >30 mg/mL
- MIC, minimum concentration required to inhibit growth (Pseudomonas aeruginosa): >30 mg/mL
- MBC, minimum concentration required to kill an entire population (Pseudomonas sp.): >30 mg/mL
- MIC, minimum concentration required to inhibit growth (Pseudomonas sp.): >30 mg/mL
- MBC, minimum concentration required to kill an entire population (S. aureus): <0.5 mg/mL
- MIC, minimum concentration required to inhibit growth (S. aureus): <0.5 mg/mL
- MBC, minimum concentration required to kill an entire population (S. capitis): <0.5 mg/mL
- MIC, minimum concentration required to inhibit growth (S. capitis): <0.5 mg/mL
- MBC, minimum concentration required to kill an entire population (S. epidermidis): <0.5 mg/mL
- MIC, minimum concentration required to inhibit growth (S. epidermidis): <0.5 mg/mL
- MBC, minimum concentration required to kill an entire population (S. lentus): <0.5 mg/mL
- MIC, minimum concentration required to inhibit growth (S. lentus): <0.5 mg/mL
- MBC, minimum concentration required to kill an entire population (S. simulans): <0.5 mg/mL
- MIC, minimum concentration required to inhibit growth (S. simulans): <0.5 mg/mL
- MBC, minimum concentration required to kill an entire population (S. xylosus): <0.5 mg/mL
- MIC, minimum concentration required to inhibit growth (S. xylosus): <0.5 mg/mL
- MIC, minimum concentration required to inhibit growth (Ent. faeculm): <0.5 mg/mL
- MBC, minimum concentration required to kill an entire population (Ent. faeculm): <0.5 mg/mL
- MBC, minimum concentration required to kill an entire population (Kleb. oxytoca): >30 mg/mL
- MIC, minimum concentration required to inhibit growth (Kleb. oxytoca): >30 mg/mL
- MBC, minimum concentration required to kill an entire population (Kleb. ornitholytica): >30 mg/mL
- MIC, minimum concentration required to inhibit growth (Kleb. ornitholytica): >30 mg/mL
- MBC, minimum concentration required to kill an entire population (Steno. maltophilia): >30 mg/mL
- MIC, minimum concentration required to inhibit growth (Steno. maltophilia): 6 mg/mL
- MBC, minimum concentration required to kill an entire population (Cornyeform amycolatum): <0.5 mg/mL
- MBC, minimum concentration required to kill an entire population (Coryneform strait/amy): <0.5 mg/mL
- MIC, minimum concentration required to inhibit growth (Coryneform strait/amy): <0.5 mg/mL
- MBC, minimum concentration required to kill an entire population (Proteus vulgaris): >30 mg/mL
- MIC, minimum concentration required to inhibit growth (Proteus vulgaris): >30 mg/mL
